pEC50: −log10 of the molar value. “And” between values parts separate entries of the source, which are not always exact repeats. Identical values can stand only once. Like-named read-outs stand apart in the source and are kept apart here.
Tested on: SLI-N330K parasites
Assay: Growth inhibition assay (72 h, LDH activity)
Type: cell-based, Plasmodium falciparum
Settings: for Growth inhibition, (1 - av / DMSO) x 100: Fig 2B source data, per biological replicate; for pEC50: Plasmodium falciparum
Protocol: Parasite growth assays with inhibitory compounds were performed as per[11] and are fully described in the Supplementary Information.
Molecular biology and transfection of P. falciparum: Selection Linked Integration […]
To introduce the PfSTART1 mutations, the second half of the coding sequence of pfstart1 (PF3D7_0104200), was recodonised without introns to the bias of Saccharomyces cerevisiae containing either WT, N309K or N330K mutations, and synthesised as gBlock fragments (Integrated DNA Technologies). The first 819 bp of the 5′ native sequence of pfstart1 was amplified from gDNA, to form the 5’ homology block (5’ HB). The 3′ recodonised gBlock fragment comprising of the last 552 bp of either the WT, N309K or N330K pfstart1 to form the ‘recodon’ block (primers listed in Table S2). The 5’ HB and recodon products were sewn together by overlapping PCR to reconstitute the full coding sequence of pfstart1. These blocks (WT/N309K/N330K) were digested with BglII/PstI, and inserted into the parasite vector p-HA-2A-Neo-glmS
1. This plasmid contains an in -frame haemagglutinin (HA) epitope for protein identification and a P2A peptide (2A) to skip continuous peptide bond synthesis of a downstream neomycin resistance gene ( NeoR).
Parasites containing the transfected DNA were selected using 2.5 nM WR99210 (Jacobus). To select for parasites in which single crossover integration had occurred into the pfstart1 locus, parasites were treated with 400 μg/mL G418 (geniticin, Sigma Aldrich) for 14 days: only parasites that have integrated the construct into their genome expressed the neomycin resistance gene together with the PfSTART1 protein.
Parasite lines were cloned using limiting dilution. These clones were then tested on Western Blot (for correct HA-tagging and protein size), and correct integration and sequence were tested by PCR analysis: PCR on the gDNA was conducted using the primers START_5’UTR.F and START_Seq.R (Table S2). […]
Growth inhibition assays. Synchronised ring-stage parasites (0.3-0.6% parasitemia, 2% haematocrit) were grown for 72 h in a serial-dilution of the compound under […]
and compound 4. Note that M-833 was first purchased from MolPort (MolPort -002-267-916) then made in-house at WEHI: the differences observed in EC50s across experiments are attributed to the different batches of M -833. For some experiments, 0, 0.25 or 2.5 mM of glucosamine (GlcN) was also added. Experiments were set up in technical duplicates or triplicates. Following a freeze -thaw cycle, lactate dehydrogenase (LDH) activity was assessed as an indicator of parasite growt h 5. 30 μL of parasite culture was incubated for 30 min in the dark with 75 μL Malstat mixture (0.1 M Tris pH 9.0, 20 g/L lactic acid, pH 7.5, 0.2% Triton-X100, 0.5 g/L acetylpyridine adenine dinucleotide (APAD, Sigma), 200 μg/mL nitroblue tetrazolium (NBT; Sigma), 1 μg/mL phenozine ethosulfate (PES; Sigma)). Absorbance was then measured at 650 nm, transformed using the formula below, plotted against the logarithm of the concentrations, and a non-linear regression (log(inhibitor) vs. response, variable slope) was calculated using GraphPad Prism to assess the half-inhibitory […]
Growth inhibition % = (1 − average(sample)− average(uRBC)) ∗ 100 […]
The DMSO samples were also used to assess growth of parasite in the presence of 0.25 and 2.5 mM GlcN (normalised by DMSO in 0 mM GlcN).
Egress, invasion & recovery assay. To measure egress, invasion and follow up recovery in the presence of different compounds, we adapted the method developed in6, using Hyp1-Nluc parasites7. These parasites episomally express the exported PEXEL protein Hyp1 (PF3D7_0113300) tagged with a NanoLuc luciferase (NLuc) and were selected with 2.5 nM WR99210 (Jacobus). Highly synchronised schizonts were obtained using ML10 (LifeArc) and sorbitol synchronisation, and Percoll-purified (the culture was gently layered over 67% Percoll (Cytiva) in RPMI, and centrifuged for 15 min at 1500 g and the schizont layer was collected and washed). […]

Compound: Cc1cc(Cl)c(S(=O)(=O)N2CCCC2)cc1OCC(=O)NC1CCCCC1 [M-833]
- sample/DMSO (0.123457 uM M-833, START(N330K), 0.25 mM GlcN, biological replicate 4): -2.981
- sample/DMSO (0.123457 uM M-833, START(N330K), 2.5 mM GlcN, biological replicate 1): 25.4075
- sample/DMSO (0.123457 uM M-833, START(N330K), 2.5 mM GlcN, biological replicate 2): 9.59
- sample/DMSO (0.123457 uM M-833, START(N330K), 2.5 mM GlcN, biological replicate 3): 1.226
- sample/DMSO (0.123457 uM M-833, START(N330K), 2.5 mM GlcN, biological replicate 4): -0.1405
- sample/DMSO (0.37037 uM M-833, START(N330K), 0 mM GlcN, biological replicate 1): 19.3431
- sample/DMSO (0.37037 uM M-833, START(N330K), 0 mM GlcN, biological replicate 2): 2.274
- sample/DMSO (0.37037 uM M-833, START(N330K), 0 mM GlcN, biological replicate 3): 7.66
- sample/DMSO (0.37037 uM M-833, START(N330K), 0 mM GlcN, biological replicate 4): -3.175
- sample/DMSO (0.37037 uM M-833, START(N330K), 0.25 mM GlcN, biological replicate 1): 19.0968
- sample/DMSO (0.37037 uM M-833, START(N330K), 0.25 mM GlcN, biological replicate 2): 15.8158
- sample/DMSO (0.37037 uM M-833, START(N330K), 0.25 mM GlcN, biological replicate 3): 6.853
- sample/DMSO (0.37037 uM M-833, START(N330K), 0.25 mM GlcN, biological replicate 4): -2.547
- sample/DMSO (0.37037 uM M-833, START(N330K), 2.5 mM GlcN, biological replicate 1): 28.3178
- sample/DMSO (0.37037 uM M-833, START(N330K), 2.5 mM GlcN, biological replicate 2): 11.3273
- sample/DMSO (0.37037 uM M-833, START(N330K), 2.5 mM GlcN, biological replicate 3): 5.76
- sample/DMSO (0.37037 uM M-833, START(N330K), 2.5 mM GlcN, biological replicate 4): 6.979
- sample/DMSO (1.11111 uM M-833, START(N330K), 0 mM GlcN, biological replicate 1): 22.4532
- sample/DMSO (1.11111 uM M-833, START(N330K), 0 mM GlcN, biological replicate 2): 7.959
- sample/DMSO (1.11111 uM M-833, START(N330K), 0 mM GlcN, biological replicate 3): 16.7199
- sample/DMSO (1.11111 uM M-833, START(N330K), 0 mM GlcN, biological replicate 4): 4.969
- sample/DMSO (1.11111 uM M-833, START(N330K), 0.25 mM GlcN, biological replicate 1): 24.0145
- sample/DMSO (1.11111 uM M-833, START(N330K), 0.25 mM GlcN, biological replicate 2): 17.1338
- sample/DMSO (1.11111 uM M-833, START(N330K), 0.25 mM GlcN, biological replicate 3): 18.125
- sample/DMSO (1.11111 uM M-833, START(N330K), 0.25 mM GlcN, biological replicate 4): 8.022
- sample/DMSO (1.11111 uM M-833, START(N330K), 2.5 mM GlcN, biological replicate 1): 36.9907
- sample/DMSO (1.11111 uM M-833, START(N330K), 2.5 mM GlcN, biological replicate 2): 15.1494
- sample/DMSO (1.11111 uM M-833, START(N330K), 2.5 mM GlcN, biological replicate 3): 17.4656
- sample/DMSO (1.11111 uM M-833, START(N330K), 2.5 mM GlcN, biological replicate 4): 7.728
- Growth inhibition, (1 - av / DMSO) x 100 (SLI-N330K, M-833 conc 0.00304832 (unit not given)): -17.2829% and -4.43% and -6.85%
- Growth inhibition, (1 - av / DMSO) x 100 (SLI-N330K, M-833 conc 0.00914495 (unit not given)): -20.2465% and -6.679% and -8.021%
- Growth inhibition, (1 - av / DMSO) x 100 (SLI-N330K, M-833 conc 0.0274348 (unit not given)): -22.4472% and -9.048% and -10.9244%
- Growth inhibition, (1 - av / DMSO) x 100 (SLI-N330K, M-833 conc 0.0823045 (unit not given)): -27.3474% and -6.202% and -4.991%
- Growth inhibition, (1 - av / DMSO) x 100 (SLI-N330K, M-833 conc 0.246914 (unit not given)): -20.5399% and -4.464% and 0.9677%
- Growth inhibition, (1 - av / DMSO) x 100 (SLI-N330K, M-833 conc 0.740741 (unit not given)): -11.4437% and -0.9712% and 2.699%
- Growth inhibition, (1 - av / DMSO) x 100 (SLI-N330K, M-833 conc 2.22222 (unit not given)): 10.9155% and 8.4% and 12.8088%
- Growth inhibition, (1 - av / DMSO) x 100 (SLI-N330K, M-833 conc 6.66667 (unit not given)): 48.6796% and 44.0109% and 38.2735%
- Growth inhibition, (1 - av / DMSO) x 100 (SLI-N330K, M-833 conc 20 (unit not given)): 69.4542% and 76.7081% and 72.5236%
- sample/DMSO (M-833 3.33333 uM, START(N330K), 0 mM GlcN, biological replicates 1-4): 23.2009 and 27.766 and 32.1009 and 22.2063
- sample/DMSO (M-833 3.33333 uM, START(N330K), 0.25 mM GlcN, biological replicates 1-4): 36.1845 and 29.2292 and 28.75 and 22.2222
- sample/DMSO (M-833 3.33333 uM, START(N330K), 2.5 mM GlcN, biological replicates 1-4): 45.6636 and 29.3607 and 33.6678 and 26.3232
- sample/DMSO (M-833 10 uM, START(N330K), 0 mM GlcN, biological replicates 1-4): 60.4059 and 63.1206 and 59.1558 and 63.3004
- sample/DMSO (M-833 10 uM, START(N330K), 0.25 mM GlcN, biological replicates 1-4): 65.2315 and 63.5636 and 70.0446 and 58.3469
- sample/DMSO (M-833 10 uM, START(N330K), 2.5 mM GlcN, biological replicates 1-4): 68.4226 and 62.1265 and 64.6971 and 47.1194
- pEC50 (Fig 2B, SLI-N330K, 72 h, n = 3, unit only in x-axis title, read-out: EC50 (95% confidence interval)): 5.20
- pEC50 (Fig 3C, SLI-N330K, 2.5 mM GlcN, n = 4, unit on plot axis, read-out: EC50 M-833 (95% confidence interval)): < 5.52
- fold more resistant than the 3D7 parental parasites (SLI-N330K, Fig 2B): 64 fold

Source: publication PMC11189555, “Aryl amino acetamides prevent Plasmodium falciparum ring development via targeting the lipid-transfer protein PfSTART1” (Nature Communications, 2024)
